Activity calls are given as the source filed them. The calls are words filed in the database; no cut-off is given here.
Assays:
[1] = Protein binding in human plasma; type: ADME, cell-free; conditions: read-out: PPB (converted)
[2] = species on record: Mus musculus; assay: Inhibition of scopolamine-induced memory deficit in mouse measured at plasma concentration of 2.5 uM after 24 hrs by contexual fear conditioning assay; type: functional, organism-based
[3] = Protein binding in rat plasma; type: ADME, cell-free; conditions: read-out: PPB (converted)
[4] = Passive permeability across MDCK cells; type: ADME, cell-based, Canis lupus familiaris; conditions: dog
[5] = target: T1, Muscarinic acetylcholine receptor M4 (Homo sapiens) (UniProt P08173); assay: Activity at muscarinic M4 receptor expressing in CHONFAT cells assessed as potentiation of acetylcholine-induced calcium mobilization preincubated for 4 mins and measured 4 mins after acetylcholine stimulation by FLIPR assay; type: functional, cell-based
T1 sequence (whole entry): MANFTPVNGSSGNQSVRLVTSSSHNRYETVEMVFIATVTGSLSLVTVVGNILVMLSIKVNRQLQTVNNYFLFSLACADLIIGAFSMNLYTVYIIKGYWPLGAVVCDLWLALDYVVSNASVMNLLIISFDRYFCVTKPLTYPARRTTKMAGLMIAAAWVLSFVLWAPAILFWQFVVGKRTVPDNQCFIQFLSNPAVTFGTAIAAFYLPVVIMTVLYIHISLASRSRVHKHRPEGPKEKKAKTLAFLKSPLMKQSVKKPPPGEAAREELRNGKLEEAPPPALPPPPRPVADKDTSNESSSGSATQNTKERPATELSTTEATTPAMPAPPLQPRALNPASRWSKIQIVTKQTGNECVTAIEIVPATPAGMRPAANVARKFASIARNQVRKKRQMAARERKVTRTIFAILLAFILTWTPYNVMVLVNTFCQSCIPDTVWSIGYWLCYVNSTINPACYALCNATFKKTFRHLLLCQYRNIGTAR

[6] = target: T2, Muscarinic acetylcholine receptor M2 (Homo sapiens) (UniProt P08172); assay: Activity at muscarinic M2 receptor expressing in CHONFAT cells assessed as potentiation of acetylcholine-induced calcium mobilization preincubated for 4 mins and measured 4 mins after acetylcholine stimulation by FLIPR assay; type: functional, cell-based
T2 sequence (whole entry): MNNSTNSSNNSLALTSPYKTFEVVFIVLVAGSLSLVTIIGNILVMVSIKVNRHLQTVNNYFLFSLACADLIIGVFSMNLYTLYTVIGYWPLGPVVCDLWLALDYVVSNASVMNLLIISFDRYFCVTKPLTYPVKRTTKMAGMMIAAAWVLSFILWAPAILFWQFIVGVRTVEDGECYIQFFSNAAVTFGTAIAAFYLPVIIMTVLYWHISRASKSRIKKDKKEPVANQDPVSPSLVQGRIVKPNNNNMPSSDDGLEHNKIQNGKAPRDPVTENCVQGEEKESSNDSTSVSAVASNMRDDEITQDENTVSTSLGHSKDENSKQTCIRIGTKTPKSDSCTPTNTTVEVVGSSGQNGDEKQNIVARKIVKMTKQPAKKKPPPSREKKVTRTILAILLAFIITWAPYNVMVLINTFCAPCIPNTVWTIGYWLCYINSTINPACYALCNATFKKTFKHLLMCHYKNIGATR

[7] = target: Muscarinic acetylcholine receptor M3 (Homo sapiens) (UniProt P20309); assay: Activity at muscarinic M3 receptor expressing in CHONFAT cells assessed as potentiation of acetylcholine-induced calcium mobilization preincubated for 4 mins and measured 4 mins after acetylcholine stimulation by FLIPR assay; type: functional, cell-based
Muscarinic acetylcholine receptor M3 (Homo sapiens), sequence (P20309 whole entry, looked up): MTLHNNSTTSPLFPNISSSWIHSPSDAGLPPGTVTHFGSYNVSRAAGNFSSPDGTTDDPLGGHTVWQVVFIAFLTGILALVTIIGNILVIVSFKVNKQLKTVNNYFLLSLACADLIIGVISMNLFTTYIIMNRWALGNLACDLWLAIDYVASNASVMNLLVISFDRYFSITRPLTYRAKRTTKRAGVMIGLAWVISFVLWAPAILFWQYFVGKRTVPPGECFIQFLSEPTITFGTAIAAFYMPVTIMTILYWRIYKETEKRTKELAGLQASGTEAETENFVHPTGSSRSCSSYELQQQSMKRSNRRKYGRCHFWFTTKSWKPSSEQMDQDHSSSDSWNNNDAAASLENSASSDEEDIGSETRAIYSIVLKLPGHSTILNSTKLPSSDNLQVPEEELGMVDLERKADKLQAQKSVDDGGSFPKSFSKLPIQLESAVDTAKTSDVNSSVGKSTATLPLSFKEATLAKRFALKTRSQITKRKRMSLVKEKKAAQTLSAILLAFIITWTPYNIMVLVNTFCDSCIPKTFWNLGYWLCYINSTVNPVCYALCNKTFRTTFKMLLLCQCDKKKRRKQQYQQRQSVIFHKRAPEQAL

[8] = target: T3, Muscarinic acetylcholine receptor M1 (Homo sapiens) (UniProt P11229); assay: Positive allosteric modulation of human muscarinic M1 receptor expressing in CHONFAT cells assessed as potentiation of acetylcholine-induced calcium mobilization preincubated for 4 mins and measured 4 mins after acetylcholine stimulation by FLIPR assay; type: functional, cell-based
T3 sequence (whole entry): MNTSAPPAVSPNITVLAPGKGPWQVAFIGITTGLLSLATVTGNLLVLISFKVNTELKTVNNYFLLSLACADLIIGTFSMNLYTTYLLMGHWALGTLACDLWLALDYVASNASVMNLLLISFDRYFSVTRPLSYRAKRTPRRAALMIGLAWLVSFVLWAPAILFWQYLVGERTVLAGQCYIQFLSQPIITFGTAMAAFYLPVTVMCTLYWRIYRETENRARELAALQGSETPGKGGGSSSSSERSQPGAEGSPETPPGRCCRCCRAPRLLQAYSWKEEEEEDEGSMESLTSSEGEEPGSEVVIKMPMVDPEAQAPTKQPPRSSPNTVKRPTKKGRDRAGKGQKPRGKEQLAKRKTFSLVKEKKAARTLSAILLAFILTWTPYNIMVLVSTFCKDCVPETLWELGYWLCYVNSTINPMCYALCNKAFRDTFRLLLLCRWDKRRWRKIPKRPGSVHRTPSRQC

[9] = Plasma concentration in Sprague-Dawley rat at 10 mg/kg, po after 2 hrs; type: ADME, organism-based; parameters: dose 10 mg/kg, route oral
[10] = Fraction unbound in rat plasma; type: ADME, cell-free
[11] = Ratio of drug level in brain to plasma of Sprague-Dawley rat at 10 mg/kg, po after 2 hrs; type: ADME, organism-based; parameters: dose 10 mg/kg, route oral; conditions: read-out: BPR
[12] = target: MDR1 (P-gp, ABCB1) (Homo sapiens, UniProt P08183); assay: in vitro; conditions: not told
MDR1 (P-gp, ABCB1), sequence (P08183 whole entry): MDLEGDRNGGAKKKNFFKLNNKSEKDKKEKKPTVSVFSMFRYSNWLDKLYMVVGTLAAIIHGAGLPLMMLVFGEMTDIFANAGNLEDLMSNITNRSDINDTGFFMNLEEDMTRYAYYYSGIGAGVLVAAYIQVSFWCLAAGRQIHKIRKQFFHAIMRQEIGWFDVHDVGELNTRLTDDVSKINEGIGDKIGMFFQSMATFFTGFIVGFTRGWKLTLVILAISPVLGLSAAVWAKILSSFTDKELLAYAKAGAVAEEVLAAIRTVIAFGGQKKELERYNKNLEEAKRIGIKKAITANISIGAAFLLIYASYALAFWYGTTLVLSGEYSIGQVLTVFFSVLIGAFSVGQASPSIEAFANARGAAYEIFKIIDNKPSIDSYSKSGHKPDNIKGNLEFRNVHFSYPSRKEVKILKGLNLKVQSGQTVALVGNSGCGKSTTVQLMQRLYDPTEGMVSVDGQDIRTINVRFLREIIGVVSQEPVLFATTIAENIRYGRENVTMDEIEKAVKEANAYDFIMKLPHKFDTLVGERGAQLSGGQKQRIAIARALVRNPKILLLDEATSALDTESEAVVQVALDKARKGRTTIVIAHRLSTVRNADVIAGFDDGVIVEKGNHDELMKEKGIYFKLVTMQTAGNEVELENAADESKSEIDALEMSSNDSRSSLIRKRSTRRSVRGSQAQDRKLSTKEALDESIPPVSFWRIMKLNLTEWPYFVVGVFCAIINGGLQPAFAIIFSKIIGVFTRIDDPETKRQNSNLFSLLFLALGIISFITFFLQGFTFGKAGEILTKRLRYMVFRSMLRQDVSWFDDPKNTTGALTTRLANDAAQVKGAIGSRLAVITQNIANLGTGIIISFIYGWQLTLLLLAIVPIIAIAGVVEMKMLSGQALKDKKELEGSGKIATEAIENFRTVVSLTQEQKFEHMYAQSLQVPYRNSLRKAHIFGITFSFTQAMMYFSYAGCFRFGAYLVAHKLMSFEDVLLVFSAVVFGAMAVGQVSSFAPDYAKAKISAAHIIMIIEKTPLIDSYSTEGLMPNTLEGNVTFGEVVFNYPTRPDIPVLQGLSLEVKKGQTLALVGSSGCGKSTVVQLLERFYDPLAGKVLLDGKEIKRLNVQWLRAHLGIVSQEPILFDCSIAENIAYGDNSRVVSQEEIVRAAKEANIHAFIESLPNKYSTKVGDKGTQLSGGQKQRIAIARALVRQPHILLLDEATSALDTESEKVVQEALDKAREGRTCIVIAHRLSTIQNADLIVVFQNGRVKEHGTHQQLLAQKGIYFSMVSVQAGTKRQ
Description: Efflux ratio assessed as human MDR1-mediated directional transport ratio from basolateral to apical over apical to basolateral by cell based assay

[13] = Fraction unbound in human plasma; type: ADME, cell-free
[14] = test system: Rattus norvegicus; assay: Ratio of drug level in CSF to unbound drug level in plasma of Sprague-Dawley rat at 10 mg/kg, po after 2 hrs; conditions: in vivo
[15] = test system: Mus musculus; assay: Inhibition of scopolamine-induced memory deficit in mouse pretreated with 10 to 30 mg/kg, ip after 24 hrs by contexual fear conditioning assay; type: functional, organism-based
[16] = test system: Plasma; assay: Plasma concentration in mouse scopolamine-induced memory deficit model at 10 mg/kg, ip; type: ADME, organism-based; parameters: dose 10 mg/kg, route intraperitoneal; conditions: in vivo
[17] = Drug concentration in Sprague-Dawley rat CSF at 10 mg/kg, po after 2 hrs; type: ADME, organism-based, Cerebrospinal fluid; parameters: dose 10 mg/kg, route oral; conditions: read-out: Drug uptake
[18] = Drug concentration in Sprague-Dawley rat brain at 10 mg/kg, po after 2 hrs; type: ADME, organism-based; parameters: dose 10 mg/kg, route oral; conditions: read-out: Drug uptake
[19] = target: T3, Muscarinic acetylcholine receptor M1 (Homo sapiens); assay: Positive allosteric modulation of human muscarinic M1 receptor expressing in CHONFAT cells assessed as potentiation of acetylcholine-induced calcium mobilization at 34 uM preincubated for 4 mins and measured 4 mins after acetylcholine stimulation by FLIPR assay relative to untreated control; type: functional, cell-based
[20] = target: MDR1a (P-gp, ABCB1) (Rattus norvegicus, UniProt P43245); assay: in vitro; conditions: not told
MDR1a (P-gp, ABCB1), sequence (P43245 whole entry): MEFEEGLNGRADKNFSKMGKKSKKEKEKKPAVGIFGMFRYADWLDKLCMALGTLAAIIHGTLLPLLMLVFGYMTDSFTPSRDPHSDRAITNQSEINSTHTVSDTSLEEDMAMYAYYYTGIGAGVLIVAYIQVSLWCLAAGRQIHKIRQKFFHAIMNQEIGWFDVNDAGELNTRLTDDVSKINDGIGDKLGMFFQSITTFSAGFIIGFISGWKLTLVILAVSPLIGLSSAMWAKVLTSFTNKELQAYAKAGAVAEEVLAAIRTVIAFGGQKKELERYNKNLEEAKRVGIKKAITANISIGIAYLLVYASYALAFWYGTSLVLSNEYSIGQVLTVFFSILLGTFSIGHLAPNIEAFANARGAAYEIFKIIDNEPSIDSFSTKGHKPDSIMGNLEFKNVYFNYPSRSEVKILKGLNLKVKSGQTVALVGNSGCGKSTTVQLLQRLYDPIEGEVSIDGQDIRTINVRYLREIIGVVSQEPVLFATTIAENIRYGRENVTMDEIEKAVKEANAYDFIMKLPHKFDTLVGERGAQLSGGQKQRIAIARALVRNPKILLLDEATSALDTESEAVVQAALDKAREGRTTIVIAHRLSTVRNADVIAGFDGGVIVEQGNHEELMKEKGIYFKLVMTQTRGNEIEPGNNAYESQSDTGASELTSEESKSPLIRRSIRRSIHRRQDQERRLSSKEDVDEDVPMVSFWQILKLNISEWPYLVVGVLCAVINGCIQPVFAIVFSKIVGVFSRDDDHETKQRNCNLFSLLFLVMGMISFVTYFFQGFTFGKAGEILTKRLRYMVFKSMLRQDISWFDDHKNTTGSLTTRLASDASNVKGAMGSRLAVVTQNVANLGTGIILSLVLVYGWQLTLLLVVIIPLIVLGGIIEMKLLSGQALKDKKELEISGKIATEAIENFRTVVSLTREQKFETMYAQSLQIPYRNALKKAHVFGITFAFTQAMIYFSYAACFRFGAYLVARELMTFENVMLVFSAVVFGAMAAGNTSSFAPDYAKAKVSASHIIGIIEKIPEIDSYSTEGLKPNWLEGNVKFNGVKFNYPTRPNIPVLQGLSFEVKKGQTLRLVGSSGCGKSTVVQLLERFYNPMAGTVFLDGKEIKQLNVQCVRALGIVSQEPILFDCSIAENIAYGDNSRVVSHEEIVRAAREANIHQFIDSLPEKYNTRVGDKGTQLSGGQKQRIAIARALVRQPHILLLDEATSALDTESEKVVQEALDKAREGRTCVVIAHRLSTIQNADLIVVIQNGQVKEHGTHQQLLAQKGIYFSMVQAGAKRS
Description: Efflux ratio assessed as rat MDR1a-mediated directional transport ratio from basolateral to apical over apical to basolateral by cell based assay

[21] = target: Voltage-gated inwardly rectifying potassium channel KCNH2 (Homo sapiens, UniProt Q12809); assay: Binding affinity to human ERG
Voltage-gated inwardly rectifying potassium channel KCNH2, sequence (Q12809 whole entry): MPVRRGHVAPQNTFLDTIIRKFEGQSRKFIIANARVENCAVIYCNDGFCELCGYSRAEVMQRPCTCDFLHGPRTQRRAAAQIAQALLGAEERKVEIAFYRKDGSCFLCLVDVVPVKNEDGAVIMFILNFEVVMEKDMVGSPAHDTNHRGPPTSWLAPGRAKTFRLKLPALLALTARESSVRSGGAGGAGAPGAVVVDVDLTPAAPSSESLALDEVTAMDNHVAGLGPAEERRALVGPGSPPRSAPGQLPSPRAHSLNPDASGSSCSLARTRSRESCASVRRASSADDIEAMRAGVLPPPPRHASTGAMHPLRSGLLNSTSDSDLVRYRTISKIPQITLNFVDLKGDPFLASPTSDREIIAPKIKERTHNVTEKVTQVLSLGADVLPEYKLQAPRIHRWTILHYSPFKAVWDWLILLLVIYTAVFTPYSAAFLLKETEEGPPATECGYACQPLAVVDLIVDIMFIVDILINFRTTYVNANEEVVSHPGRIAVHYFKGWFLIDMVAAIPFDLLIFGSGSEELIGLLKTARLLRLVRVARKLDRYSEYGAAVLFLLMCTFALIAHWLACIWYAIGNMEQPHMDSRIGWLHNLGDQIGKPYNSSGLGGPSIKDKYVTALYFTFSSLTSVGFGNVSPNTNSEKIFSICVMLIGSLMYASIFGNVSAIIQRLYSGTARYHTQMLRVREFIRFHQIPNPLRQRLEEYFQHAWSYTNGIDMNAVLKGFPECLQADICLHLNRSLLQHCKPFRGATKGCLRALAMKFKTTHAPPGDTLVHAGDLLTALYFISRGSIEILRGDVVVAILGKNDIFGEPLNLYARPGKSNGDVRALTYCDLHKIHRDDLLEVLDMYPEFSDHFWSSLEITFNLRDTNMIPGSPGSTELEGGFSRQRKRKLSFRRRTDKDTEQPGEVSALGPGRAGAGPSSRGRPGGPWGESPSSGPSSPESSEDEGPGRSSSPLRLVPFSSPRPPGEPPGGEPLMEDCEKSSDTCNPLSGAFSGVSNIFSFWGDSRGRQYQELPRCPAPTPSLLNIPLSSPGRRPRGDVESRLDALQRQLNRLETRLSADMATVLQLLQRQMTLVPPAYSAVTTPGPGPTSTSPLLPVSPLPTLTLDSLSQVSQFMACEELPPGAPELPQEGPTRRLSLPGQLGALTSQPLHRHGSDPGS

[22] = species on record: Mus musculus; assay: Inhibition of scopolamine-induced memory deficit in mouse measured at plasma concentration of 1 uM after 24 hrs by contexual fear conditioning assay; type: functional, organism-based

| Compound | fraction unbound [1] | fraction unbound [3] | Papp [4] | Activity [5] | Activity [6] | Activity [7] | IP [8] | concentration at 2 h [9] | Kp at 2 h [11] | efflux ratio [12] | Ratio [14] | concentration at 2 h [17] | concentration at 2 h [18] | efflux ratio [20] | IC50 [21] | further results |
| --- | --- | --- | --- | --- | --- | --- | --- | --- | --- | --- | --- | --- | --- | --- | --- | --- |
| O=C(N[C@H]1CCCC[C@@H]1O)c1cc(CN2CCN(c3cc4ccccc4cn3)CC2)c2ccccn2c1=O | 0.087 | 0.032 | 29 ×10⁻⁶ cm/s | inactive | inactive | inactive | 110 nM |  |  |  |  |  |  |  |  | inhibition [2]: Active |
| N#CC1(c2ccccn2)CCN(Cc2cc(C(=O)NC3CCOCC3)c(=O)n3ccccc23)CC1 | 0.49 | 0.268 | 33 ×10⁻⁶ cm/s | inactive | inactive | inactive | 338 nM | 2650 nM | 0.21 | 2.4 | 0.3 | 215 nM | 559 nM | 7.5 |  | fraction unbound [10]: 0.27; fraction unbound [13]: 0.49; inhibition [15]: Active; concentration [16]: 2400 nM; fold change (FC) [19]: 52 |
| N#CC1(c2ccccn2)CCN(Cc2cc(C(=O)N[C@H]3CCCC[C@@H]3F)c(=O)n3ccccc23)CC1 | 0.185 | 0.073 | 26 ×10⁻⁶ cm/s | inactive | inactive | inactive | 147 nM | 1120 nM | 0.28 | 1.9 | 0.33 | 27 nM | 280 nM | 3.4 |  |  |
| N#CC1(c2ccccc2)CCN(Cc2cc(C(=O)N[C@H]3CCCC[C@@H]3O)c(=O)n3ccccc23)CC1 | 0.148 | 0.031 | 32 ×10⁻⁶ cm/s | inactive | inactive | inactive | 45 nM | 1610 nM | 0.52 | 2.3 | 0.58 | 29 nM | 896 nM | 3.3 | 5100 nM |  |
| N#CC1(c2ccccn2)CCN(Cc2cc(C(=O)O)c(=O)n3ccccc23)CC1 [MSD-M1PAM] | 0.291 | 0.318 | 18 ×10⁻⁶ cm/s |  |  |  |  | 1480 nM |  | 0.5 | 0.3 |  |  | 1.4 |  | inhibition [22]: Active |
| N#Cc1ccc(N2CCN(Cc3cc(C(=O)N[C@H]4CCCC[C@@H]4O)c(=O)n4ccccc34)CC2)cc1 | 0.095 | 0.061 | 30 ×10⁻⁶ cm/s | inactive | inactive | inactive | 244 nM |  |  | 1.1 |  |  |  | 4.7 | 390 nM |  |

From ChEMBL document CHEMBL2203078, “Identification of amides as carboxylic Acid surrogates for quinolizidinone-based m1 positive allosteric modulators” (ACS Med Chem Lett, 2012)
